Measurements reported in ChEMBL document CHEMBL5226325, “Optimization of a Screening Hit toward M2912, an Oral Tankyrase Inhibitor with Antitumor Activity in Colorectal Cancer Models” (J Med Chem, 2021).

Key:
[1] = molecular target: T1, Poly [ADP-ribose] polymerase tankyrase-1 (Homo sapiens, UniProt O95271); assay: Inhibition of TNKS1 (unknown origin) using biotinylated NAD as substrate assessed as inhibition of autoPARsylation activity incubated for 1 hr by ELISA
T1 sequence (O95271 whole entry): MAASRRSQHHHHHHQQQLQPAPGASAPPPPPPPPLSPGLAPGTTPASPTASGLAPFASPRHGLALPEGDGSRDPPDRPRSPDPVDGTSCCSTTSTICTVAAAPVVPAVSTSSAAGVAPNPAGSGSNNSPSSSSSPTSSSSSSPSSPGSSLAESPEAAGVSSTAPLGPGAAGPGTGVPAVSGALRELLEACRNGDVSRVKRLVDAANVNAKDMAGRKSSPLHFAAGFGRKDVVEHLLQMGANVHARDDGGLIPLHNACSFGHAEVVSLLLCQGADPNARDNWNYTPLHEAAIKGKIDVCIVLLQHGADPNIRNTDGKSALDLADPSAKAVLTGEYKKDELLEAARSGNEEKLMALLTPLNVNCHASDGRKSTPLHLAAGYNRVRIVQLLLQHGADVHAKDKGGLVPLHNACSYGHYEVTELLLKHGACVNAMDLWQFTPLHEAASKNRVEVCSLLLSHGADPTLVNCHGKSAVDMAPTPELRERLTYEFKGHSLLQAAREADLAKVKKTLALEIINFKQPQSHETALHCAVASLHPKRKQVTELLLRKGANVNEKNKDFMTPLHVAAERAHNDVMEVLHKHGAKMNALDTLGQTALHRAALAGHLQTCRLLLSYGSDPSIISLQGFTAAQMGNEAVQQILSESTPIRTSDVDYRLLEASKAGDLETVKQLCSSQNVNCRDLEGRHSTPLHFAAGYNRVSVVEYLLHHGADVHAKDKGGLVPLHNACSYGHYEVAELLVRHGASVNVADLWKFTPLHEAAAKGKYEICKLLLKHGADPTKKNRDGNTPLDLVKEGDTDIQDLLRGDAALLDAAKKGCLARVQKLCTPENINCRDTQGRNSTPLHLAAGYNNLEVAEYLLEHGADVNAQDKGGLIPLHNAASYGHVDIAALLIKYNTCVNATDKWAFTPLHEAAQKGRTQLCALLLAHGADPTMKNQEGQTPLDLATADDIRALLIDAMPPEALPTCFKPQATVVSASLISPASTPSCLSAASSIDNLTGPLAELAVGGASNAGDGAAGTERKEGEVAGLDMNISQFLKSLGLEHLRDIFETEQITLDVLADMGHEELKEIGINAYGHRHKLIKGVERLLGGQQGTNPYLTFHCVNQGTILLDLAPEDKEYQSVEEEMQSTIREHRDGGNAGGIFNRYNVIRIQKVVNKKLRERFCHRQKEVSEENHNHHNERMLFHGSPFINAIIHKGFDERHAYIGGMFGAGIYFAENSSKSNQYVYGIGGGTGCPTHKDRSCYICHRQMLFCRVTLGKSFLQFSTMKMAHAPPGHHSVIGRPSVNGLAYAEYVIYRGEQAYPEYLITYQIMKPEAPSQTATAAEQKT

[2] = Modulation of Wnt/beta-catenin signaling pathway in human DLD-1 cells assessed as induction of AXIN2 accumulation incubated for 24 hrs by ELISA; assay type: cell-based; details: DLD-1, 24 h
[3] = molecular target: T2, Poly [ADP-ribose] polymerase tankyrase-2 (Homo sapiens, UniProt Q9H2K2); assay: Inhibition of TNKS2 (unknown origin) using biotinylated NAD as substrate assessed as inhibition of autoPARsylation activity incubated for 1 hr by ELISA
T2 sequence (Q9H2K2 whole entry): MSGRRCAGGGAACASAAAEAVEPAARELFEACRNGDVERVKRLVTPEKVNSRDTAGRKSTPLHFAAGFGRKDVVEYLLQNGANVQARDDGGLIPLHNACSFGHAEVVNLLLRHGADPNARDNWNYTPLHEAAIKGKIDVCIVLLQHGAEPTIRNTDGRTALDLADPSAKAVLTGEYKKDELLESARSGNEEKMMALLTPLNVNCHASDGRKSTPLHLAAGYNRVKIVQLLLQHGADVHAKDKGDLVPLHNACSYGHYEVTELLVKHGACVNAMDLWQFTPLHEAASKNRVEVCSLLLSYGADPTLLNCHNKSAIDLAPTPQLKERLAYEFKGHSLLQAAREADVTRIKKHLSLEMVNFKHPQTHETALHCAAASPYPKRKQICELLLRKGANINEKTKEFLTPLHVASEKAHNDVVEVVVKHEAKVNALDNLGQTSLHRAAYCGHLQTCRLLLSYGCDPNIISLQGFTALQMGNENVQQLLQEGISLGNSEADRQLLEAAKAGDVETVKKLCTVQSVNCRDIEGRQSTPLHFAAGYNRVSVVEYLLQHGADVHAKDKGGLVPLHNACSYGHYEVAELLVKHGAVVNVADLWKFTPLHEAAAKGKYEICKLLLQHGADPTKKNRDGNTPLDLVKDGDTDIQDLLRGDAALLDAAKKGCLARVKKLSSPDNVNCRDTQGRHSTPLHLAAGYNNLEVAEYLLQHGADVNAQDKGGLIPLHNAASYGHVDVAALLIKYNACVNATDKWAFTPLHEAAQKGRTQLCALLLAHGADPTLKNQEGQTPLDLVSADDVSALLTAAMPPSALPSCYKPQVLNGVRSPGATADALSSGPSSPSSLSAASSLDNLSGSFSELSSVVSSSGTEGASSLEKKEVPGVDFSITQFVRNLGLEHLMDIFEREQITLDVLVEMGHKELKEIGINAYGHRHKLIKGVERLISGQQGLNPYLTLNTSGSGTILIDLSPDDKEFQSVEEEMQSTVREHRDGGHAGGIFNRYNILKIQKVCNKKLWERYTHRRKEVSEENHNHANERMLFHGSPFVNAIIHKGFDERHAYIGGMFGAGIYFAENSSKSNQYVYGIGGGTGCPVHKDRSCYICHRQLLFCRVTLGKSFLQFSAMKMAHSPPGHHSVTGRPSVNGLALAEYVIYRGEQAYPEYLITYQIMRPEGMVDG

[4] = molecular target: Poly [ADP-ribose] polymerase 1 (Homo sapiens, UniProt P09874); assay: Inhibition of PARP-1 (unknown origin) using biotinylated NAD and NAD as substrate assessed as inhibition of auto-PARsylation incubated for 150 mins by TR-FRET assay
Poly [ADP-ribose] polymerase 1, sequence (P09874 whole entry, the tested form may be a part): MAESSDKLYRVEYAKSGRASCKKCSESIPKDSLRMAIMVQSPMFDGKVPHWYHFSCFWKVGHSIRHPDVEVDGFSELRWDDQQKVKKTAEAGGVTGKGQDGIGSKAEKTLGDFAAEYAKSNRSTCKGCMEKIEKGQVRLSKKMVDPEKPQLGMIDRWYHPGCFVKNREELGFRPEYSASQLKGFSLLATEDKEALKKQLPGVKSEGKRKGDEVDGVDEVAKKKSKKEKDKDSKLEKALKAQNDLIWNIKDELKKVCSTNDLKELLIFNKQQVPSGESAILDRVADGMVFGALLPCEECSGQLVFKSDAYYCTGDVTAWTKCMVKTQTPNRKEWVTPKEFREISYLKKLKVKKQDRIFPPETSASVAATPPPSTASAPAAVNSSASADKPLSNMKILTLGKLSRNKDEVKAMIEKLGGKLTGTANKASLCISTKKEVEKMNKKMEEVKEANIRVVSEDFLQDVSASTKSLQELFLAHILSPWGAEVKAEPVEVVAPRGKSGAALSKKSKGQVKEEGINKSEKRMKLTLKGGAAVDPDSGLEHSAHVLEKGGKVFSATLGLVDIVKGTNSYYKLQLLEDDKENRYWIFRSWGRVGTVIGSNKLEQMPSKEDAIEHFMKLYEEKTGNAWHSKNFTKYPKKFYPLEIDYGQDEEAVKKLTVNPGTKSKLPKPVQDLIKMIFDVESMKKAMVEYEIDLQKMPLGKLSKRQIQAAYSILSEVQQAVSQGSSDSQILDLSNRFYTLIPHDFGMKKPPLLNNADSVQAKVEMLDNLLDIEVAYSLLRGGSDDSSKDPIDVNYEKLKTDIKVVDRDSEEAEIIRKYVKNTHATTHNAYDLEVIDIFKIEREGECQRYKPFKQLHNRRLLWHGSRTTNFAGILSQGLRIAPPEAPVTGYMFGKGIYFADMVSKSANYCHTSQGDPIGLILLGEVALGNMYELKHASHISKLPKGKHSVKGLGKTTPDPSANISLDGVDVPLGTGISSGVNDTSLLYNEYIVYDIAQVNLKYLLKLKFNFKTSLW

[5] = molecular target: T1, Poly [ADP-ribose] polymerase tankyrase-1; assay: Binding affinity to recombinant human TNKS1 (1091 to 1327 residues) assessed as dissociation constant by ITC method
[6] = molecular target: T1, Poly [ADP-ribose] polymerase tankyrase-1; assay: Inhibition of TNKS1 (unknown origin) using biotinylated NAD as substrate assessed as inhibition of autoPARsylation activity incubated for 90 mins by TR-FRET analysis

Row | SMILES | IC50 [1] [nM] | EC50 [2] [nM] | IC50 [3] [nM] | IC50 [4] [nM] | Kd [5] [nM] | IC50 [6] [nM]
1 | Cc1ccc2c(=O)[nH]c(-c3ccc(C4(O)COC4)cc3)cn12 | 2.5 | 28 | 1.8 | 350 | – | –
2 | CC(C)(O)c1ccc(-c2cn3cc(F)cc3c(=O)[nH]2)cc1 | 1.9 | 147 | 2.9 | 450 | – | –
3 | Cc1ccc2c(=O)[nH]c(-c3ccc([C@](C)(O)CO)cc3)cn12 | 2.6 | 82 | 2 | 604 | – | –
4 | Cc1cc2c(=O)[nH]c(-c3ccc(C(C)(C)O)cc3)cn2c1 | 2.3 | 230 | 7.9 | 1900 | – | –
5 | Cc1ccc2c(=O)[nH]c(-c3ccc([C@](C)(O)CCO)cc3)cn12 | 0.8 | 18 | 1 | 770 | – | –
6 | Cc1ncc2c(=O)[nH]c(-c3ccc(C(C)(C)C)cc3)cn12 | 2.9 | 210 | 3.8 | 28000 | – | –
7 | Cc1ccc2c(=O)[nH]c(-c3ccc(C4(O)CC4)cc3)cn12 | 1 | 49 | 1 | 330 | – | –
8 | CC(C)(C)c1ccc(-c2cn3ccnc3c(=O)[nH]2)cc1 | 21 | 1430 | – | – | – | –
9 | CC(C)(O)c1ccc(-c2cn3c(CO)ccc3c(=O)[nH]2)cc1 | 9.8 | 580 | 8.2 | 4200 | – | –
10 | Cc1ccc2c(=O)[nH]c(-c3ccc([C@@](C)(O)CO)cc3)cn12 | 1.9 | 93 | 1.7 | 748 | – | –
11 | CC(C)(O)c1ccc(-c2cn3cccc3c(=O)[nH]2)cc1 | 2.7 | 120 | 5.5 | 920 | 6 | –
12 | Cc1cc2c(=O)[nH]c(-c3ccc(C(C)(C)O)cc3)nn2n1 | 570 | 12000 | 2600 | – | – | –
13 | CC(C)(O)c1ccc(-c2cn3cc(Cl)cc3c(=O)[nH]2)cc1 | 2.5 | 118 | 9.4 | 630 | – | –
14 | Cc1cc2c(=O)[nH]c(-c3ccc(C(C)(C)O)cc3)cn2n1 | 13 | 510 | 36 | 3700 | – | –
15 | Cc1ccc2c(=O)[nH]c(-c3ccc(C(C)(C)O)cc3)nn12 | 0.8 | 28 | 0.9 | 950 | – | –
16 | Cc1ccc(-c2cn3ccnc3c(=O)[nH]2)cc1 | – | – | – | – | – | 1500
17 | CC(C)(O)c1ccc(-c2cn3c(F)c(F)cc3c(=O)[nH]2)cc1 | 1.2 | 159 | 3.5 | 1300 | – | –
18 | Cc1ncc2c(=O)[nH]c(-c3ccc(C(C)(C)O)cc3)cn12 | 12 | 749 | 14 | 23000 | – | –
19 | Cc1ccc2c(=O)[nH]c(-c3ccc(C(C)(C)OCCO)cc3)cn12 | 2.3 | 20 | 1.5 | 693 | – | –
20 | Cc1ccc2c(=O)[nH]c(-c3ccc([C@@](C)(O)CCO)cc3)cn12 | 2.1 | 16 | 1.6 | 340 | – | –
21 | CC(C)(O)c1ccc(-c2cn3c(F)ccc3c(=O)[nH]2)cc1 | 3.4 | 113 | 6.1 | 2000 | 6 | –
22 | Cc1csc2c(=O)[nH]c(-c3ccc(C(C)(C)O)cc3)nc12 | 2 | 96 | 1.5 | 440 | – | –
23 | CC(C)(C)c1ccc(-c2cn3cncc3c(=O)[nH]2)cc1 | 27 | 635 | 35 | – | – | –
